Target: Glutamate [NMDA] receptor
Experiment: Inhibitory activity against NMDA receptor using [3H]-CGS- 19755 as radioligand
Type: protein-complex assay

IC50: 12.1 µM
SMILES: O=C(O)[C@@H]1C[C@H]2C[C@@H](CCc3nn[nH]n3)CC[C@H]2CN1 [TEZAMPANEL ANHYDROUS]
